What all share (assay type): cell-based
Assay [1] addresses T1, CYCLIN K (nuclear staining in CAL-120 cells) (Homo sapiens, UniProt O75909).
T1 construct: endogenous in cells; host or cells: CAL-120 human breast cancer cells (DSMZ ACC 459)
In words: CYCLIN K nuclear protein level: immunofluorescence high content analysis (CAL-120). The note with it: 24 h, 50% reduction of nuclear CCNK staining intensity, median, read-out: CYCLIN K degradation IF, DC50-[mol/l] (median). The procedure, abridged:
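Readout is automated confocal image analysis of nuclear cyclin K immunofluorescence (Hoechst nuclei) after PFA fixation. Cells were CAL-120, exposed to compound dose-response 24 h at 37 °C; values are DC50 for halving nuclear CCNK signal relative to DMSO and control wells.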

Assay [2] concerns CAL-120, human breast adenocarcinoma cells. Put plainly: Proliferation assay CAL-120 (crystal violet, 4 days). The note with it: Homo sapiens, CAL-120, 96 h, CAL-120 cells, median, read-out: Prolif-CAL-120, IC50-[mol/l] (median). A digest of the protocol:
(§1)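 IC50 from a 4-parameter fit of crystal violet absorbance (595 nm), scaled between the day-of-dosing plate (0%) and vehicle cells (100%). MDA-MB-231 or CAL-120 cells were treated for 4 days with 0.01–10 micromol/L compound in 0.1% DMSO after 24 h attachment.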

Assay [3] concerns MDA-MB-231, human breast cancer cells. In words: Proliferation assay MDA-MB-231 (crystal violet, 4 days). To be noted: Homo sapiens, MDA-MB-231, 96 h, MDA-MB-231 cells, median, read-out: Prolif-MDA MB-231, IC50-[mol/l] (median). The procedure, abridged: as §1

Experimental findings from patent US20230117034A1, “PYRAZOLOTRIAZINES” (Bayer Aktiengesellschaft, priority 2019, published 2023) are described below.

pIC50: −log10 of the molar value.

T1 sequence (O75909 whole entry): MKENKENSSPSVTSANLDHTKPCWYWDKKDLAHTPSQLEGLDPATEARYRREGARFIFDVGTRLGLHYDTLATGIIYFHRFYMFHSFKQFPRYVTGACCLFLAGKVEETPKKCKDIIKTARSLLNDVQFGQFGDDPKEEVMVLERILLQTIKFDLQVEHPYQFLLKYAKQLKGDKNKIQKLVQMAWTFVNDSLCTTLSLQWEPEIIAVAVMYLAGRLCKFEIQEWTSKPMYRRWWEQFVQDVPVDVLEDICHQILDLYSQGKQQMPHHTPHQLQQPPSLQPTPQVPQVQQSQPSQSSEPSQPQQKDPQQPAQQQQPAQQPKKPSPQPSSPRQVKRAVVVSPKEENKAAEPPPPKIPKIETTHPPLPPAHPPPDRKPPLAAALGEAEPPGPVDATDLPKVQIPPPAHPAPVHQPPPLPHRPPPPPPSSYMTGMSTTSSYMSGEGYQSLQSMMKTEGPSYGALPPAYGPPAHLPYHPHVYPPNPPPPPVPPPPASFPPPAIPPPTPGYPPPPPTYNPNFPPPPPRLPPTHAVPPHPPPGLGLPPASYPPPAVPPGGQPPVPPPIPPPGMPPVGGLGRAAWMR
T1 sequence (Q9NYV4 whole entry partner): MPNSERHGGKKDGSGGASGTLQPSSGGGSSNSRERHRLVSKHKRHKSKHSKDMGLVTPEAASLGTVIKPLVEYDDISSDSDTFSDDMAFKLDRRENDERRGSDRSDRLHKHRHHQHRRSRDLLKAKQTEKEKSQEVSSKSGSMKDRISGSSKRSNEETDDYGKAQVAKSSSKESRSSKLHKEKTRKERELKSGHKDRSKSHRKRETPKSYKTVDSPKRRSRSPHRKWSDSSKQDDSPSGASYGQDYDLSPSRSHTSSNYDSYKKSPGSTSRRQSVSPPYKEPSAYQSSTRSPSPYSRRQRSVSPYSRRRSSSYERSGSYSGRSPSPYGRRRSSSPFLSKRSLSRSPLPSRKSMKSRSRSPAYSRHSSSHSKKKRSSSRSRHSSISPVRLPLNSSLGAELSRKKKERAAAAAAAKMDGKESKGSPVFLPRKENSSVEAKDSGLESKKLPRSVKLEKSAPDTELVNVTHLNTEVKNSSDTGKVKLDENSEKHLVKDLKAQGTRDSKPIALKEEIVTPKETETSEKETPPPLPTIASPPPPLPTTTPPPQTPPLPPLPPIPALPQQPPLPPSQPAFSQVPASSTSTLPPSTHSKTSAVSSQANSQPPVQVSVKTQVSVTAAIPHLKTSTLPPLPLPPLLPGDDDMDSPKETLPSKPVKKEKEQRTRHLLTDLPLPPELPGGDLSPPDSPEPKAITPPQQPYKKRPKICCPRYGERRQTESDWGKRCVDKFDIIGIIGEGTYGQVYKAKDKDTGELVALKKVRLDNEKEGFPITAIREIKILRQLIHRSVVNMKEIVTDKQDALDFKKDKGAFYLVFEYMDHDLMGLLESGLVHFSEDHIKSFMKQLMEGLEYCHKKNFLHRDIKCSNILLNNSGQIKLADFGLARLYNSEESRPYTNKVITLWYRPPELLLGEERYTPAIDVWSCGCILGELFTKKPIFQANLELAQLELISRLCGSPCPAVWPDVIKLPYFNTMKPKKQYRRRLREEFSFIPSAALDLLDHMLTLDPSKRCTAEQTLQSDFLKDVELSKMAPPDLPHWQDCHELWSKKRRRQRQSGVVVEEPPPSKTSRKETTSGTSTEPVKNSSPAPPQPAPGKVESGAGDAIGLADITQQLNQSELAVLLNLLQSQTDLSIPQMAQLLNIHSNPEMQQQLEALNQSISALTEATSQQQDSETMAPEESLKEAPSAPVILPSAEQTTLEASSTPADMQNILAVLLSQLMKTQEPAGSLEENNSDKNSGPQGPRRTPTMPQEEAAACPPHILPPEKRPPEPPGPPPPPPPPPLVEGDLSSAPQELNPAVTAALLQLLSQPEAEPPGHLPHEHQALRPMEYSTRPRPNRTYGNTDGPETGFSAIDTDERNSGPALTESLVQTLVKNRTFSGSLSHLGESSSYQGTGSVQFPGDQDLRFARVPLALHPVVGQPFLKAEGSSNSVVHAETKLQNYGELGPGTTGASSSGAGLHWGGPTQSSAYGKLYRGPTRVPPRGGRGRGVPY

Take `CC1CN(c2nc(NCc3nc4ccccc4[nH]3)n3ncc(C(C)C)c3n2)CCO1` (racemic) [Example 11, (rac)-N-[(1H-benzimidazol-2-yl)methyl]-2-[2-methylmorpholin-4-yl]-8-(propan-2-yl)pyrazolo[1,5-a][1,3,5]triazin-4-amine]: the DC50 in assay [1] worked out at 14.5 nM.
For the molecule `Cc1cc(-c2cnn3c(NCc4nc5ccccc5[nH]4)nc(N4CCN(C)CC4)nc23)ccn1` [Example 243, N-[(1H-benzimidazol-2-yl)methyl]-2-(4-methylpiperazin-1-yl)-8-(2-methylpyridin-4-yl)pyrazolo[1,5-a][1,3,5]triazin-4-amine], the pIC50 in assay [2] was 5.44.
For `COCCNc1nc(NCc2nc3ccccc3[nH]2)n2ncc(Br)c2n1` [Example 230, N4-(1H-benzimidazol-2-ylmethyl)-8-bromo-N2-(2-methoxyethyl)pyrazolo[1,5-a][1,3,5]triazine-2,4-diamine], the pIC50 in assay [3] was 6.58; in assay [2] it was 6.50.
For the molecule `COC(C)(C)CNc1nc(NCc2nc3ccccc3[nH]2)n2ncc(Br)c2n1` [Example 236, N4-(1H-benzimidazol-2-ylmethyl)-8-bromo-N2-(2-methoxy-2-methyl-propyl)pyrazolo[1,5-a][1,3,5]triazine-2,4-diamine], the pIC50 in assay [3] was 7.04; in assay [2], 7.01. In addition, the DC50 in assay [1] is 1.72 nM.
Turning to `COc1cccc2[nH]c(CNc3nc(N4C[C@H]5C[C@@H]4CO5)nc4c(C5CC5)cnn34)nc12` [Example 198, 8-cyclopropyl-N-[(4-methoxy-1H-benzimidazol-2-yl)methyl]-2-[(1R,4R)-2-oxa-5-azabicyclo[2.2.1]heptan-5-yl]pyrazolo[1,5-a][1,3,5]triazin-4-amine], the pIC50 was 7.01 in assay [3] and 7.51 in assay [2].
For the molecule `Cc1ccc2[nH]c(CNc3nc(N4CCNCC4)nc4c(Br)cnn34)nc2c1` [Example 204, 8-bromo-N-[(5-methyl-1H-benzimidazol-2-yl)methyl]-2-(piperazin-1-yl)pyrazolo[1,5-a][1,3,5]triazin-4-amine], the pIC50 was 8.80 in assay [3] and 9.06 in assay [2]. Further, the DC50 in assay [1] turned out to be 0.0967 nM.
For the molecule `CN1CCN(c2nc(NCc3nc4ccccc4[nH]3)n3ncc(-c4ccncc4)c3n2)CC1` [Example 242, N-[(1H-benzimidazol-2-yl)methyl]-2-(4-methylpiperazin-1-yl)-8-(pyridin-4-yl)pyrazolo[1,5-a][1,3,5]triazin-4-amine], the results for the pIC50 in assay [3] and in assay [2] were 6.60 and 6.07, respectively.
Turning to `CO[C@H]1CCN(c2nc(NCc3nc4ccccc4[nH]3)n3ncc(Br)c3n2)C1` [Example 222, N-[(1H-benzimidazol-2-yl)methyl]-8-bromo-2-[(3S)-3-methoxypyrrolidin-1-yl]pyrazolo[1,5-a][1,3,5]triazin-4-amine], the pIC50 in assay [3] is 6.74; in assay [2], 6.97. Besides, the DC50 in assay [1] was determined as 3.05 nM.
The matching figures for `CN(CCO)c1nc(NCc2nc3ccccc3[nH]2)n2ncc(Br)c2n1` [Example 237, 2-[(4-{[(1H-benzimidazol-2-yl)methyl]amino}-8-bromopyrazolo[1,5-a][1,3,5]triazin-2-yl)(methyl)amino]ethan-1-ol]: 6.79, 6.79 and 19.7 nM.
For the molecule `O=C1CN(c2nc(NCc3nc4ccccc4[nH]3)n3ncc(Br)c3n2)CCN1` [Example 167, 4-(4-{[(1H-benzimidazol-2-yl)methyl]amino}-8-bromopyrazolo[1,5-a][1,3,5]triazin-2-yl)piperazin-2-one], the pIC50 was 6.15 in assay [3] and 7.15 in assay [2].
For the molecule `CN1CC2CCC(C1)N2c1nc(NCc2nc3ccccc3[nH]2)n2ncc(Br)c2n1` [Example 226, N-(1H-benzimidazol-2-ylmethyl)-8-bromo-2-(3-methyl-3,8-diazabicyclo[3.2.1]octan-8-yl)pyrazolo[1,5-a][1,3,5]triazin-4-amine], the pIC50 is 6.79 in assay [3] and 6.94 in assay [2]. Further, the DC50 in assay [1] stood at 3.89 nM.
Taken in the same sequence, the figures for `CN1CC2CCC1CN2c1nc(NCc2nc3ccccc3[nH]2)n2ncc(Br)c2n1` (stereo not drawn) [Example 221, N-(1H-benzimidazol-2-ylmethyl)-8-bromo-2-(5-methyl-2,5-diazabicyclo[2.2.2]octan-2-yl)pyrazolo[1,5-a][1,3,5]triazin-4-amine] were 7.50, 7.89 and 0.41 nM.
The matching figures for `Cc1ccc2[nH]c(CNc3nc(N4C[C@@H](C)N[C@@H](C)C4)nc4c(Br)cnn34)nc2c1` [Example 209, 8-bromo-2-[(3R,5S)-3,5-dimethylpiperazin-1-yl]-N-[(5-methyl-1H-benzimidazol-2-yl)methyl]pyrazolo[1,5-a][1,3,5]triazin-4-amine]: 8.65, 8.89 and 0.0619 nM.
On to `CN(C)[C@H]1CCN(c2nc(NCc3nc4ccccc4[nH]3)n3ncc(Br)c3n2)C1` [Example 177, N-[(1H-benzimidazol-2-yl)methyl]-8-bromo-2-[(3S)-3-(dimethylamino)pyrrolidin-1-yl]pyrazolo[1,5-a][1,3,5]triazin-4-amine], for which the pIC50 in assay [3] was 6.48; in assay [2] it was 7.16.
For `CCN(C)c1nc(NCc2nc3ccccc3[nH]2)n2ncc(Br)c2n1` [Example 233, N4-(1H-benzimidazol-2-ylmethyl)-8-bromo-N2-ethyl-N2-methyl-pyrazolo[1,5-a][1,3,5]triazine-2,4-diamine], the pIC50 in assay [3] was 6.84; in assay [2], 6.80.
The matching figures for `Brc1cnn2c(NCc3nc4ccccc4[nH]3)nc(NCCN3CCCC3)nc12` [Example 235, N4-(1H-benzimidazol-2-ylmethyl)-8-bromo-N2-(2-pyrrolidin-1-ylethyl)pyrazolo[1,5-a][1,3,5]triazine-2,4-diamine]: 6.50 and 6.56.
The matching figures for `CN(C)[C@@H]1CCN(c2nc(NCc3nc4ccccc4[nH]3)n3ncc(Br)c3n2)C1` [Example 178, N-[(1H-benzimidazol-2-yl)methyl]-8-bromo-2-[(3R)-3-(dimethylamino)pyrrolidin-1-yl]pyrazolo[1,5-a][1,3,5]triazin-4-amine]: 6.30 and 7.01.
Taken in the same sequence, the figures for `OC1(C(F)(F)F)CCN(c2nc(NCc3nc4ccccc4[nH]3)n3ncc(Br)c3n2)C1` (stereo not drawn) [Example 200, 1-[4-(1H-benzimidazol-2-ylmethylamino)-8-bromo-pyrazolo[1,5-a][1,3,5]triazin-2-yl]-3-(trifluoromethyl)pyrrolidin-3-ol] were 6.82 and 7.02.
Take `O[C@H]1CCN(c2nc(NCc3nc4ccccc4[nH]3)n3ncc(Br)c3n2)C1` [Example 224, (3S)-1-(4-{[(1H-benzimidazol-2-yl)methyl]amino}-8-bromopyrazolo[1,5-a][1,3,5]triazin-2-yl)pyrrolidin-3-ol]: the pIC50 in assay [3] is 6.89; in assay [2], 7.24.
Consider `C[C@@H]1CN(c2nc(NCc3nc4ccccc4[nH]3)n3ncc(Br)c3n2)CCN1` [Example 168, N-[(1H-benzimidazol-2-yl)methyl]-8-bromo-2-[(3R)-3-methylpiperazin-1-yl]pyrazolo[1,5-a][1,3,5]triazin-4-amine], for which the pIC50 in assay [2] was 8.49. The DC50 in assay [1] amounted to 0.973 nM.
`CC1(O)CCN(c2nc(NCc3nc4ccccc4[nH]3)n3ncc(Br)c3n2)C1` (stereo not drawn) [Example 225, 1-[4-(1H-benzimidazol-2-ylmethylamino)-8-bromo-pyrazolo[1,5-a][1,3,5]triazin-2-yl]-3-methyl-pyrrolidin-3-ol]: the pIC50 is 6.91 in assay [3] and 7.20 in assay [2].
The matching figures for `OCCNc1nc(NCc2nc3ccccc3[nH]2)n2ncc(Br)c2n1` [Example 228, 2-[(4-{[(1H-benzimidazol-2-yl)methyl]amino}-8-bromopyrazolo[1,5-a][1,3,5]triazin-2-yl)amino]ethan-1-ol]: 6.36 and 6.56.
`OC1CCN(c2nc(NCc3nc4ccccc4[nH]3)n3ncc(Br)c3n2)CC1` [Example 17, 1-(4-{[(1H-benzimidazol-2-yl)methyl]amino}-8-bromopyrazolo[1,5-a][1,3,5]triazin-2-yl)piperidin-4-ol]: the pIC50 in assay [3] was 6.97. The DC50 in assay [1] worked out at 4.63 nM.
`CN(C)C1CCN(c2nc(NCc3nc4ccccc4[nH]3)n3ncc(Br)c3n2)CC1` [Example 201, N-[(1H-benzimidazol-2-yl)methyl]-8-bromo-2-[4-(dimethylamino)piperidin-1-yl]pyrazolo[1,5-a][1,3,5]triazin-4-amine]: the figures for the pIC50 in assay [3] and in assay [2] were 6.54 and 6.90, respectively.
On to `CN(CCN1CCCC1)c1nc(NCc2nc3ccccc3[nH]2)n2ncc(Br)c2n1` [Example 239, N4-(1H-benzimidazol-2-ylmethyl)-8-bromo-N2-methyl-N2-(2-pyrrolidin-1-ylethyl)pyrazolo[1,5-a][1,3,5]triazine-2,4-diamine], for which the results for the pIC50 in assay [3] and in assay [2] were 6.25 and 6.36, respectively.
Take `CO[C@@H]1CCN(c2nc(NCc3nc4ccccc4[nH]3)n3ncc(Br)c3n2)C1` [Example 223, N-[(1H-benzimidazol-2-yl)methyl]-8-bromo-2-[(3R)-3-methoxypyrrolidin-1-yl]pyrazolo[1,5-a][1,3,5]triazin-4-amine]: the pIC50 in assay [3] is 6.46; in assay [2], 6.57.
